Species: Rattus norvegicus
Experiment: DrugMatrix - Regimen: Daily Repeat
Format: toxicity, organism-based, Sprague-Dawley
Set-up: regimen Daily Repeat, gender Male, age 6-8 weeks
Conditions: in vivo, po, route oral GAVAGE, vehicle .5 % CMC; for ABSOLUTE BASOPHIL / ABSOLUTE EOSINOPHIL / ABSOLUTE LYMPHOCYTE / ABSOLUTE MONOCYTE / ABSOLUTE SEGMENTED NEUTROPHIL / BASOPHIL / EOSINOPHIL / ERYTHROCYTE COUNT / HEMATOCRIT / HEMOGLOBIN / LEUKOCYTE COUNT / LYMPHOCYTE / MEAN CORPUSCULAR HEMOGLOBIN / MEAN CORPUSCULAR HEMOGLOBIN CONCENTRATION / MEAN CORPUSCULAR VOLUME / MONOCYTE / NEUTROPHIL / NUCLEATED RED BLOOD CELLS / PLATELET COUNT: tissue Blood; for ALANINE AMINOTRANSFERASE / ALBUMIN / ALKALINE PHOSPHATASE / ASPARTATE AMINOTRANSFERASE / BLOOD UREA NITROGEN / CARBON DIOXIDE / CHLORIDE / CHOLESTEROL / CREATINE PHOSPHOKINASE / CREATININE / GLUCOSE / LACTATE DEHYDROGENASE / LIPASE / PHOSPHORUS / POTASSIUM / SODIUM / TOTAL BILIRUBIN / TOTAL PROTEIN / URIC ACID: tissue Plasma
[1] = 300 mg/kg, 72 h, dose level Low, time 3 day
[2] = 300 mg/kg, 120 h, dose level Low, time 5 day
[3] = 2000 mg/kg, 72 h, dose level High, time 3 day
[4] = 2000 mg/kg, 120 h, dose level High, time 5 day

## CC1(C)S[C@@H]2[C@H](NC(=O)[C@H](N)c3ccccc3)C(=O)N2[C@H]1C(=O)O [AMPICILLIN]
[1]
  ABSOLUTE BASOPHIL: 0 CELLS/uL
  ABSOLUTE EOSINOPHIL: 0 CELLS/uL
  ABSOLUTE LYMPHOCYTE: 16747 CELLS/uL
  ABSOLUTE MONOCYTE: 205.33 CELLS/uL
  ABSOLUTE SEGMENTED NEUTROPHIL: 2214.33 CELLS/uL
  BASOPHIL: 0%
  EOSINOPHIL: 0%
  ERYTHROCYTE COUNT: 5.53 x10E6/uL
  HEMATOCRIT: 34.2%
  HEMOGLOBIN: 13.4 G/DL
  LEUKOCYTE COUNT: 19.17 x10E3/uL
  LYMPHOCYTE: 87.33%
  MEAN CORPUSCULAR HEMOGLOBIN: 24.23 pg
  MEAN CORPUSCULAR HEMOGLOBIN CONCENTRATION: 39.17 G/DL
  MEAN CORPUSCULAR VOLUME: 61.9 fL
  MONOCYTE: 1%
  NEUTROPHIL: 11.67%
  NUCLEATED RED BLOOD CELLS: 0 /100WBC
  PLATELET COUNT: 1348.33 x10E3/uL
  ALANINE AMINOTRANSFERASE: 47.67 u/L
  ALBUMIN: 4.03 G/DL
  ALKALINE PHOSPHATASE: 258.67 u/L
  ASPARTATE AMINOTRANSFERASE: 88 u/L
  BLOOD UREA NITROGEN: 17.67 mg/dL
  CARBON DIOXIDE: 25.67 mmol/L
  CHLORIDE: 101.33 MEQ/L
  CHOLESTEROL: 82.67 mg/dL
  CREATINE PHOSPHOKINASE: 507.67 u/L
  CREATININE: 0.28 mg/dL
  GLUCOSE: 170 mg/dL
  LACTATE DEHYDROGENASE: 299.67 u/L
  LIPASE: 9.33 u/L
  PHOSPHORUS: 11.7 mg/dL
  POTASSIUM: 6.51 MEQ/L
  SODIUM: 143.9 MEQ/L
  TOTAL BILIRUBIN: 0.17 mg/dL
  TOTAL PROTEIN: 5.87 G/DL
  URIC ACID: 2.2 mg/dL
[2]
  ABSOLUTE BASOPHIL: 0 CELLS/uL
  ABSOLUTE EOSINOPHIL: 67.33 CELLS/uL
  ABSOLUTE LYMPHOCYTE: 16228 CELLS/uL
  ABSOLUTE MONOCYTE: 111.33 CELLS/uL
  ABSOLUTE SEGMENTED NEUTROPHIL: 1460 CELLS/uL
  BASOPHIL: 0%
  EOSINOPHIL: 0.33%
  ERYTHROCYTE COUNT: 5.55 x10E6/uL
  HEMATOCRIT: 34.3%
  HEMOGLOBIN: 13.4 G/DL
  LEUKOCYTE COUNT: 17.87 x10E3/uL
  LYMPHOCYTE: 91%
  MEAN CORPUSCULAR HEMOGLOBIN: 24.2 pg
  MEAN CORPUSCULAR HEMOGLOBIN CONCENTRATION: 39.1 G/DL
  MEAN CORPUSCULAR VOLUME: 61.93 fL
  MONOCYTE: 0.67%
  NEUTROPHIL: 8%
  NUCLEATED RED BLOOD CELLS: 0 /100WBC
  PLATELET COUNT: 1271.67 x10E3/uL
  ALANINE AMINOTRANSFERASE: 58.33 u/L
  ALBUMIN: 4.17 G/DL
  ALKALINE PHOSPHATASE: 353 u/L
  ASPARTATE AMINOTRANSFERASE: 84.33 u/L
  BLOOD UREA NITROGEN: 16 mg/dL
  CARBON DIOXIDE: 25.67 mmol/L
  CHLORIDE: 103.33 MEQ/L
  CHOLESTEROL: 80.33 mg/dL
  CREATINE PHOSPHOKINASE: 323.67 u/L
  CREATININE: 0.22 mg/dL
  GLUCOSE: 150.33 mg/dL
  LACTATE DEHYDROGENASE: 269.33 u/L
  LIPASE: 10 u/L
  PHOSPHORUS: 13 mg/dL
  POTASSIUM: 6.3 MEQ/L
  SODIUM: 143.7 MEQ/L
  TOTAL BILIRUBIN: 0.13 mg/dL
  TOTAL PROTEIN: 5.9 G/DL
  URIC ACID: 1.67 mg/dL
[3]
  ABSOLUTE BASOPHIL: 0 CELLS/uL
  ABSOLUTE EOSINOPHIL: 156 CELLS/uL
  ABSOLUTE LYMPHOCYTE: 12938 CELLS/uL
  ABSOLUTE MONOCYTE: 42 CELLS/uL
  ABSOLUTE SEGMENTED NEUTROPHIL: 1064 CELLS/uL
  BASOPHIL: 0%
  EOSINOPHIL: 1.33%
  ERYTHROCYTE COUNT: 5.68 x10E6/uL
  HEMATOCRIT: 35.27%
  HEMOGLOBIN: 13.93 G/DL
  LEUKOCYTE COUNT: 14.2 x10E3/uL
  LYMPHOCYTE: 90.33%
  MEAN CORPUSCULAR HEMOGLOBIN: 24.53 pg
  MEAN CORPUSCULAR HEMOGLOBIN CONCENTRATION: 39.5 G/DL
  MEAN CORPUSCULAR VOLUME: 62.13 fL
  MONOCYTE: 0.33%
  NEUTROPHIL: 8%
  NUCLEATED RED BLOOD CELLS: 0 /100WBC
  PLATELET COUNT: 1229.33 x10E3/uL
  ALANINE AMINOTRANSFERASE: 60 u/L
  ALBUMIN: 4.2 G/DL
  ALKALINE PHOSPHATASE: 309 u/L
  ASPARTATE AMINOTRANSFERASE: 77.67 u/L
  BLOOD UREA NITROGEN: 18 mg/dL
  CARBON DIOXIDE: 32 mmol/L
  CHLORIDE: 100.67 MEQ/L
  CHOLESTEROL: 94.33 mg/dL
  CREATINE PHOSPHOKINASE: 141 u/L
  CREATININE: 0.18 mg/dL
  GLUCOSE: 140 mg/dL
  LACTATE DEHYDROGENASE: 104 u/L
  LIPASE: 9.67 u/L
  PHOSPHORUS: 11.33 mg/dL
  POTASSIUM: 6.92 MEQ/L
  SODIUM: 144.13 MEQ/L
  TOTAL BILIRUBIN: 0.17 mg/dL
  TOTAL PROTEIN: 6 G/DL
  URIC ACID: 1.43 mg/dL
[4]
  ABSOLUTE BASOPHIL: 0 CELLS/uL
  ABSOLUTE EOSINOPHIL: 45.67 CELLS/uL
  ABSOLUTE LYMPHOCYTE: 13556.33 CELLS/uL
  ABSOLUTE MONOCYTE: 151.67 CELLS/uL
  ABSOLUTE SEGMENTED NEUTROPHIL: 1413 CELLS/uL
  BASOPHIL: 0%
  EOSINOPHIL: 0.33%
  ERYTHROCYTE COUNT: 5.47 x10E6/uL
  HEMATOCRIT: 33.33%
  HEMOGLOBIN: 13.37 G/DL
  LEUKOCYTE COUNT: 15.17 x10E3/uL
  LYMPHOCYTE: 88.67%
  MEAN CORPUSCULAR HEMOGLOBIN: 24.47 pg
  MEAN CORPUSCULAR HEMOGLOBIN CONCENTRATION: 40.1 G/DL
  MEAN CORPUSCULAR VOLUME: 60.97 fL
  MONOCYTE: 1%
  NEUTROPHIL: 10%
  NUCLEATED RED BLOOD CELLS: 0 /100WBC
  PLATELET COUNT: 1262.67 x10E3/uL
  ALANINE AMINOTRANSFERASE: 63.33 u/L
  ALBUMIN: 4.13 G/DL
  ALKALINE PHOSPHATASE: 352 u/L
  ASPARTATE AMINOTRANSFERASE: 99 u/L
  BLOOD UREA NITROGEN: 19.33 mg/dL
  CARBON DIOXIDE: 24 mmol/L
  CHLORIDE: 106.67 MEQ/L
  CHOLESTEROL: 73 mg/dL
  CREATINE PHOSPHOKINASE: 430.33 u/L
  CREATININE: 0.2 mg/dL
  GLUCOSE: 150.33 mg/dL
  LACTATE DEHYDROGENASE: 413.67 u/L
  LIPASE: 9.67 u/L
  PHOSPHORUS: 11.63 mg/dL
  POTASSIUM: 6.95 MEQ/L
  SODIUM: 148.53 MEQ/L
  TOTAL BILIRUBIN: 0.17 mg/dL
  TOTAL PROTEIN: 6.03 G/DL
  URIC ACID: 1.6 mg/dL
